Assay results published in patent US20050245563A1 (Millennium Pharmaceuticals, Inc., priority 2003, published 2005).

molecular target: T1, human Chk1 (GST-Chk1) (Homo sapiens, UniProt O14757); experiment: Chk1 DELFIA kinase assay (2 nM GST-Chk1, 600 μM ATP); assay type: biochemical; details: Biotin-GLYRSPSMPEN-amide substrate
T1 construct: made in house; host or cells: insect cells (baculovirus, Bac-to-Bac)
T1 sequence (O14757 1-476): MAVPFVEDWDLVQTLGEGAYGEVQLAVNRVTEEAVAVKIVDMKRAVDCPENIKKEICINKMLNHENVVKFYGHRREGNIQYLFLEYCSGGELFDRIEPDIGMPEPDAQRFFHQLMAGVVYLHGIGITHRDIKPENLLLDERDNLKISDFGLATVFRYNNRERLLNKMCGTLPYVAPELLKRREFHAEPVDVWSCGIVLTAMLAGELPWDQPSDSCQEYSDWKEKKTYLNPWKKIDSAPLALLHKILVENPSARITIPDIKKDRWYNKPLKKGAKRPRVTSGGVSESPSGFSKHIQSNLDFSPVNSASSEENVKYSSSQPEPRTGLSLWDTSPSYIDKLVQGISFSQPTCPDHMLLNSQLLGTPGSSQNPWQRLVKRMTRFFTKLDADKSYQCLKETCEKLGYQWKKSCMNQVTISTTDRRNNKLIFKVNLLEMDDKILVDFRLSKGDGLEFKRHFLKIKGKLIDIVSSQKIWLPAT
Experimental: Recombinant human Chk1 was expressed as a fusion protein with glutathione S-transferase at the amino-terminus (GST-Chk1) using standard baculovirus vectors and (Bac-to-Bac®) insect cell expression system purchased from GIBCO™ Invitrogen. Recombinant protein expressed in insect cells was purified using glutathione sepharose (Amersham Biotech) using standard procedures described by the manufacturer.
Chk1 DELFIA® Kinase Assay:
Assays (25 μL) utilized 2 nM GST-Chk1 containing 10 mM Tris, pH 7.5, 20% glycerol, 50 mM sodium chloride (NaCl), 0.01% Surfact-Amps® 20, 1 μM peptide stubstrate (Biotin-GLYRSPSMPEN-amide) (SEQ ID NO: 3), 01.% BSA, 2 mM DTT, 4% DMSO, 600 μM ATP, 10 MM MgCl2 and reacted for 50 minutes at room temperature. Reactions were terminated with 100 μL of Stop buffer containing 1% BSA, 10 mM Tris, pH 8.0, 150 mM NaCl, 100 mM EDTA. Stopped reactions (100 μL) were transferred to 96 well NeutrAvidin plates (Pierce) to capture the biotin-peptide substrate during a 30 minute room temperature incubation. Wells were washed and reacted with 100 μL PerkinElmer Wallac Assay Buffer containing 21.5 ng/ml anti-phospho-Ser216-Cdc25c rabbit polyclonal antibody from Cell Signaling Technology (Beverly, Mass.) and 292 ng/ml europium labeled anti-rabbit-IgG for 1 hour at room temperature. Wells were washed and europium released from the bound antibody by addition of Enhancement Solution (100 μL) (PerkinElmer Wallac) and detected using a Perkin Elmer Wallac Envison™ 2100 multilabel reader using standard manufacturer settings.

IC50, < 1000 nM:
Cc1[nH]nc2c1c(=O)n(CCCN)c1ccc(NC(=O)CN(C)C)cc21 [Example 264, N-[5-(3-aminopropyl)-3-methyl-4-oxo4,5-dihydro-2H-pyrazolo[4,3-c]quinolin-8-yl]-2-dimethylaminoacetamide]
COC(=O)/C(=C/c1ccc2c(c1)c1n[nH]c(C)c1c(=O)n2CCCN)NC(C)=O [Example 270, 2-Acetylamino-3-[5-(3-amino-propyl)-3-methyl-4-oxo-4,5-dihydro-2H-pyrazolo[4,3-c]quinolin-8-yl]-acrylic acid methyl ester]
Cc1[nH]nc2c1c(=O)n(CCCN)c1ccc(C#N)cc21 [Example 271, 5-(3-Amino-propyl)-3-methyl-4-oxo-4,5-dihydro-2H-pyrazolo[4,3-c]quinoline-8-carbonitrile]
Cc1[nH]nc2c1c(=O)n(CCCN)c1ccc(C#CCO)cc21 [Example 272, 5-(3-Amino-propyl)-8-(3-hydroxy-prop-1-ynyl)-3-methyl-2,5-dihydro-pyrazolo[4,3-c]quinolin-4-one]
Cc1[nH]nc2c1c(=O)n(CCCN)c1ccc(C#CCN)cc21 [Example 273, 5-(3-Amino-propyl)-8-(3-amino-prop-1-ynyl]-3-methyl 2,5-dihydro-pyrazolo[4,3-c]quinolin-4-one]
CNCC#Cc1ccc2c(c1)c1n[nH]c(C)c1c(=O)n2CCCN [Example 274, 5-(3-Amino-propyl)-3-methyl 8-(3-methylamino-prop-1-ynyl]-2,5-dihydro-pyrazolo[4,3-c]quinolin-4-one]
Cc1[nH]nc2c1c(=O)n(CCCN)c1ccc(C#CCN(C)Cc3ccccc3)cc21 [Example 275, 5-(3-Amino-propyl)-8-[3-(benzyl-methyl-amino)-prop-1-ynyl]-3-methyl-2,5-dihydro-pyrazolo[4,3-c]quinolin-4-one]
CC(=O)NCC#Cc1ccc2c(c1)c1n[nH]c(C)c1c(=O)n2CCCN [Example 276, N-{^3-[5-(3-Amino-propyl)-3-methyl-4-oxo4,5-dihydro-2H-pyrazolo[4,3-c]quinolin-8-yl]-prop-2-ynyl]-acetamide]
Cc1[nH]nc2c1c(=O)n(CCCN)c1ccc(C#Cc3cccnc3)cc21 [Example 277]
Cc1[nH]nc2c1c(=O)n(CCCN)c1ccc(C#Cc3ccccn3)cc21 [Example 278, 5-(3-Amino-propyl)-3-methyl-8-pyridin-2-ylethylynyl-2,5-dihydro-pyrazolo[4,3-c]quinolin-4-one]
Cc1[nH]nc2c1c(=O)n(CCCN)c1ccc(C#Cc3ccncc3)cc21 [Example 279, 5-(3-Amino-propyl)-3-methyl-8-pyridin-4-ylethylynyl-2,5-dihydro-pyrazolo[4,3-c]quinolin-4-one]
Cc1[nH]nc2c1c(=O)n(CCCN)c1ccc(C#CCOc3ccccc3)cc21 [Example 280, 5-(3-Amino-propyl)-3-methyl-8-(3-phenoxy-prop-1-ynyl)-2,5-dihydro-pyrazolo[4,3-c]quinolin-4-one]
COCC#Cc1ccc2c(c1)c1n[nH]c(C)c1c(=O)n2CCCN [Example 281, 5-(3-Amino-propyl)-8-(3-methoxy-prop-1-ynyl)-3-methyl-2,5-dihydro-pyrazolo[4,3-c]quinolin-4-one]
Cc1[nH]nc2c1c(=O)n(CCCN)c1ccc(C#CC(C)O)cc21 (stereo not drawn) [Example 282, 5-(3-Amino-propyl)-8-(3-hydroxy-but-1-ynyl)-3-methyl 2,5-dihydro-pyrazolo[4,3-c]quinolin-4-one]
CC#Cc1ccc2c(c1)c1n[nH]c(C)c1c(=O)n2CCCN [Example 283, 5-(3-Amino-propyl)-3-methyl 8-prop-1-ynyl-2,5-dihydro-pyrazolo[4,3-c]quinolin-4-one]
Cc1[nH]nc2c1c(=O)n(CCCN)c1ccc(C#CCN(C)C)cc21 [Example 284, 5-(3-Amino-propyl)-8-(3-dimethylamino-prop-1-ynyl]-3-methyl 2,5-dihydro-pyrazolo[4,3-c]quinolin-4-one]
Cc1[nH]nc2c1c(=O)n(CCCN)c1ccc(C#CCN3CCCC3)cc21 [Example 285, 5-(3-Amino-propyl)-3-methyl-8-(3-pyrrolidin-1-yl-prop-1-ynyl]-2,5-dihydro-pyrazolo[4,3-c]quinolin4-one]
Cc1[nH]nc2c1c(=O)n(CCCN)c1ccc(C#CCN3CCCCC3)cc21 [Example 286, 5-(3-Amino-propyl)-3-methyl-8-(3-piperidin-1-yl-prop-1-ynyl]-2,5-dihydro-pyrazolo[4,3-c]quinolin-4-one]
CC(=O)N1CCN(CC#Cc2ccc3c(c2)c2n[nH]c(C)c2c(=O)n3CCCN)CC1 [Example 287, 8-[3-(4-Acetyl-piperazin-1-yl)-prop-1-ynyl]-5-(3-amino-propyl)-3-methyl-2,5-dihydro-pyrazolo[4,3-c]quinolin-4-one]
Cc1[nH]nc2c1c(=O)n(CCCN)c1ccc(C#CCN3CCN(C)CC3)cc21 [Example 288, 5-(3-Amino-propyl)-3-methyl-8-[3-(4-methyl-piperazin-1-yl)-prop-1-ynyl]-2,5-dihydro-pyrazolo[4,3-c]quinolin-4-one]
Cc1[nH]nc2c1c(=O)n(CCCN)c1ccc(C#CCN3CCOCC3)cc21 [Example 289, 5-(3-Amino-propyl)-3-methyl-8-(3-morpholin-4-yl-prop-1-ynyl]-2,5-dihydro-pyrazolo[4,3-c]quinolin-4-one]
Cc1[nH]nc2c1c(=O)n(CCCN)c1ccc(C#CCn3ccnc3)cc21 [Example 290, 5-(3-Amino-propyl)-8-(3-imidazol-1-yl-prop-1-ynyl]-3-methyl-2,5-dihydro-pyrazolo[4,3-c]quinolin-4-one]
C#Cc1ccc2c(c1)c1n[nH]c(C)c1c(=O)n2CCCN [Example 291, 5-(3-Amino-propyl)-8-ethynyl-3-methyl-2,5-dihydro-pyrazolo[4,3-c]quinolin-4-one]
C#Cc1ccc2c(c1)c1n[nH]c(CCOC)c1c(=O)n2CCCN [Example 292, 5-(3-Amino-propyl)-8-ethynyl-3-(2-methoxy-ethyl)-2,5-dihydro-pyrazolo[4,3-c]quinolin-4-one]
C#Cc1ccc2c(c1)c1n[nH]c(C)c1c(=O)n2CCCNC [Example 293, 8-Ethynyl-3-methyl-5-(3-methylamino-propyl)-2,5-dihydro-pyrazolo[4,3-c]quinolin-4-one]
CCc1ccc2c(c1)c1n[nH]c(C)c1c(=O)n2CCCN [Example 294, 5-(3-Amino-propyl)-8-ethyl-3-methyl-2,5-dihydro-pyrazolo[4,3-c]quinolin4-one]
COCCCc1ccc2c(c1)c1n[nH]c(C)c1c(=O)n2CCCN [Example 295, 5-(3-amino-propyl)-8-(3-methoxypropyl)-3-methyl-2,5-dihydro-pyrazolo[4,3-c]quinolin-4-one]
